Assays:
[1] = system: MOG-immunized mice developing chronic progressive EAE; assay: Acute onset EAE study, 28 days after EAE induction (Example 1); format: in vivo, C57BL/6 mice; conditions: day 28; treatment from 3 weeks before EAE induction; clopidogrel oral, mecamylamine subcutaneous minipump; combination vs placebo p value less than 0.05
[2] = system: mouse EAE model (MOG35-55 immunization); assay: Mouse EAE model, acute oral treatment Day 14 to Day 28, global clinical score (Example 2); format: in vivo, C57L/6J female mice; conditions: Day 16 to Day 28 after immunization, 1/60 of usual therapeutic doses (clopidogrel hydrogen sulfate 270 μg/kg/day, mecamylamine hydrochloride 9 μg/kg/day), vs EAE mice without treatment
Protocol: In this experiment, both drugs are equally diluted to ultra-low doses corresponding to 1/60 of their usual therapeutic doses, and importantly, both are administered orally. Protocols for EAE induction and clinical score calculations in this experiment are slightly modified and are described in detail below:
C57L/6J female mice (8 weeks old) are purchased from Janvier (France); after two weeks of habituation, female mice (10 weeks old) develop chronic paralysis after immunization with MOG (Myelin Oligodendrocyte Glycoprotein) peptide. The experimental encephalomyelitis is induced with the Hooke Kit MOG35-55/CFA Emulsion PTX (Pertussis toxin) for EAE Induction (EK-0110, EK-0115; Hooke laboratories). The control kit is CK-0115 (Hooke laboratories).
The day 0, two subcutaneous injections of 0.1 ml each are performed; one on upper back of the mouse and one in lower back. Each injection contains 100 μg of MOG35-55 peptide ([sequence]), 200 μg of inactivated Mycobacterium tuberculosis H37Ra and is emulsified in Complete Freund's adjuvant (CFA) (Hooke laboratories). The emulsion provides antigen needed to expand and differentiate MOG-specific autoimmune T cells. […]
The global score for each animal is determined by the addition of all the above mentioned categories. […]

[3] = system: MOG-immunized mice developing chronic progressive EAE; assay: Chronic phase EAE study, 70 days post EAE induction (Example 1); format: in vivo, C57BL/6 mice; conditions: Manova p<0.005; initial mean weights of all groups equal
Protocol: Prepare the emulsion containing MOG35-55 stock, PBS and CFA. The volume of MOG35-55 stock=[(The volume of the emulsion)×(1.5 g/L)]/[(3×10-3 mol/L)×(2581.6 g/mol)]; the volume of PBS=[(The volume of the emulsion)/2]−(The volume of MOG35-55 stock); The volume of CFA=(The volume of the emulsion)/2. The emulsion is prepared by diluting the MOG35-55 stock with PBS and then mix equal volumes of this diluent and CFA. The final concentration of MOG35-55 is 300 μg per 200 μL emulsion for each mouse. Air bubbles should be avoided and the syringe must be kept at 4° C. until injection. Before use the stability of the emulsion is tested by adding one drop into a beaker of water: if the drop remains as a solid clump and slowly dissipates, then the emulsion is stable and may be injected.
Mice are anesthetized with 2% Pentobarbital sodium (i.p injection, 70˜90 μL/mouse) and kept warm under infrared lamp. Injection of 200 ng Pertussis toxin in 200 μL PBS/mouse is performed (i.v.; tail vein) using a 1-mL syringe with 0.4-mm needle. The previously described emulsion is subcutaneously administered with a 1-mL syringe with 0.4-mm needle.
Mice are kept warm under infrared lamp to perform injection of 200 ng Pertussis toxin in 200 μL PBS via i.v. (tail vein) route, as described for MOG35-55 injection.
A chronic phase study is run for 70 days post EAE induction. […]

| Compound | Histological examination: perivascular lymphocyte infiltrate inflammation (perivascular cuffing) in spinal section [1] | Global clinical score (tail, hind limb, fore limb and bladder scores) [2] | Weight gain, Post Hoc comparison with control group treated with placebo (vehicle) [3] |
| --- | --- | --- | --- |
| CNC1(C)C2CCC(C2)C1(C)C (stereo not drawn) [mecamylamine] | different degrees of perivascular inflammation | no positive effects | different from the control group |
| COC(=O)[C@H](c1ccccc1Cl)N1CCc2sccc2C1 [clopidogrel] | different degrees of perivascular inflammation | no positive effects | different from the control group |

Source: patent publication US8642566B2, “Therapeutic approaches for treating neuroinflammatory conditions” (Pharnext, priority 2009, dated 2014)
